Common to all, as to type: cell-based, human
The subject of assay [1] is ibrutinib-resistant MCL cell lines Maver-1 and Z-138. Description: ROS levels by flow cytometry, ibrutinib-resistant MCL cell lines. To be noted: 0.5 mM AOA for 24 hours; compared with the sensitive cell lines; FIG. 10B. As for the experimental part:
Mitochondria membrane potential, mitochondria mass, ROS, and apoptosis analysis. MCL cells were seeded and cultured overnight before treatment to reach log phase. Respective cell lines were plated at 2×10^6 cells/well in 6-well plates in phenol-red and pyruvate-free DMEM assay medium containing 5 mM glucose (Sigma), 2 mM GlutaMAX (Gibco, ThermoFisher Scientific), and 5% dialyzed FCS (Gibco). Vehicle, IACS-0107059 (20 nM), or (1-5 μM) BPTES was added and replenished every day until the indicated time points. ROS and mitochondria membrane potential were evaluated 24 hours after treatment. […] TMRE dye fluorescence retained in the cells was detected by flow cytometry with excitation and emission of 548/574 nm. Data were analyzed with NovoExpress (ACEA Biosciences, San Diego, Calif., USA) or FlowJo10 (Tree Star, Ashland, Oreg., USA). To measure ROS levels, treated cells were harvested, stained with […] CM-H2DCF-DA (C6827, Molecular Probes, Invitrogen) in PBS for 30 min at 37° C., washed twice with PBS, and analyzed in a flow cytometer (FACS Caliber, BD Biosciences) by recording the green fluorescence of oxidized DCF. The mean fluorescence of 10,000 analyzed cells (corrected for auto fluorescence) was taken as a readout for the intracellular ROS load.
In general terms: Flow cytometry measures light scatter and fluorescence of single cells or particles in a stream.

In assay [2] the test system is Z-138 and Maver-1 MCL cell lines. The assay can be described thus: Immunoblotting of cleaved Caspase-7 and PARP. As to conditions: 20 nM IACS-010759 and/or 5 μM BPTES for 72 hours; FIG. 5G. As for the experimental part:
Cells were cultured with single agent or combination therapy in the presence or absence of caspase inhibitors. Cells were harvested, washed twice with cold PBS, and lysed with lysis buffer (Cell Signaling, Danvers, Mass., USA). Cell lysates were kept on ice for 30 min and centrifuged at 13,000 g for 10 min at 4° C. For the detection of cytosolic cytochrome c, the Cytosol Fractionation Kit (BioVision, Milpitas, Calif., USA) was utilized to acquire cytosolic fractions according to the manufacturer's instructions. Supernatants were collected, and the protein content of each fraction was determined using a Bio-Rad Bradford assay (Bio-Rad, Hercules, Calif., USA). Samples were boiled in loading buffer and separated by 10% SDS-PAGE. After electrophoresis, the proteins were transferred onto a nitrocellulose membrane (Bio-Rad), which was incubated with blocking solution (5% nonfat dry milk in PBS containing 0.05% Tween-20) for 2 h and immunoblotted with SLC16A1 (Novus, St. Louis, Mo., USA), SLC1A5, BTK, and p16INK4a, and GAPDH (Cell Signaling, Danvers, Mass., USA) antibodies. The membrane was finally visualized by incubating the membrane with a chemiluminescence Western blot kit (Pierce Biotechnology, Rockford, Ill., USA).
For orientation: Immunoblotting shows a protein as a band on a membrane.

The subject of assay [3] is ibrutinib-resistant Maver-1 MCL cells. Description: Apoptosis assay (Annexin-V/PI), Maver-1. To be noted: 72 hours, 20 nM IACS-010759 and/or 5 μM BPTES, FIGS. 5F & 11E. As for the experimental part:
(§1) Apoptosis assays. Annexin V-binding assay was used to detect the induction of apoptosis. Cells were seeded in 48-well plates with single agent or combination therapy for various times, or with different concentrations for 48 hours. To quantify the percentages of cells undergoing apoptosis, Annexin V-FITC was used. Briefly, cells were washed twice with cold PBS and then suspended in binding buffer at a concentration of 1×10^6 cells/mL. After incubation, 100 μL of the solution was transferred to a 5-mL tube, to which 5 μL of Annexin V-FITC and 5 μL of PI are added. The tube was gently vortexed and incubated for 15 min at room temperature in dark. At the end of the incubation, 300 μL of binding buffer was added. Flow cytometric analysis was performed immediately with a Novocyte Flow Cytometer (ACEA Biosciences, San Diego, Calif., USA). Data were analyzed with NovoExpress (ACEA Biosciences, San Diego, Calif., USA) or FlowJo10 (Tree Star, Ashland, Oreg., USA).

Assay [4] relates to ibrutinib-resistant Z-138 MCL cells. The assay can be described thus: Apoptosis assay (Annexin-V/PI), Z-138. To be noted: 72 hours, 20 nM IACS-010759 and/or 5 μM BPTES, FIGS. 5F & 11E. As for the experimental part:
as §1

Molecules are shown by their SMILES.

The results in this text go back to US20200299783A1 (Board of Regents, The University of Texas System, priority 2019, published 2020).

As for `NOCC(=O)O` [AOA, aminooxyacetate], the “ROS and energy stress” value in assay [1] is “marked induction of reactive oxygen species (ROS) and energy stress”.
As for `O=C(Cc1ccccc1)Nc1nnc(CCSCCc2nnc(NC(=O)Cc3ccccc3)s2)s1` [BPTES, bis-2-(5-phenylacetamido-1,3,4-thiadiazol-2-yl)ethyl sulfide], the “caspase 7 activation and PARP cleavage” value in assay [2] is “induced caspase 7 activation and PARP cleavage”. Besides, the apoptosis in assay [3] was determined as 25%; in assay [4], 44%.
